Like-named read-outs stand apart in the source and are kept apart here.

The text below walks through data of patent US20190337971A1, “PANTETHEINE DERIVATIVES FOR THE TREATMENT OF NEUROLOGIC DISORDERS” (Retrophin, Inc., priority 2016, published 2019).

Series [1] is described as follows: Stability of compounds in human hepatocytes. The conditions noted are these: cryopreserved human hepatocytes in suspension, 37° C., 0-240 min. The series is classed as in vitro ADME. Here is the method: Stability in hepatocytes for select compounds disclosed in the application was evaluated in two species (mouse and human) according to the following procedure. Compounds and positive control samples were dissolved in 100% DMSO at 5 mM. Cryopreserved hepatocytes were thawed and resuspended in Hepatocyte Basal Medium (HBM-Lonza CC-3199) supplemented with CC-4182 (complete hepatocyte culture medium). Test compounds were diluted into cell suspension (1 million cells/ml) from the stock solutions to have a test compound concentration of 5 μM (0.1% DMSO). Incubation was performed in 24-well plates, at 37° C. in a DUBNOFF water bath, under low shaking. Each compound was tested at 6 time points, in duplicates (0, 15, 30, 60, 120, and 240 min). At each time point, an aliquot of 120 μl was taken and transferred to a 96-well deep plate. The reaction was stopped with the addition of one volume of 100% acetonitrile plus 0.1% formic acid and the appropriate internal standard. Samples then were centrifuged at 1100×g for 30 min at +4° C. and supernatants were transferred to a new 96-deepwell plate. Samples were evaporated under N2 and reconstituted in H2O/ACN 0.1% formic Acid (98:2). Analysis was performed without a calibration curve (Acquity UPLC-Waters; Sciex API4000). Time 0 was obtained adding acetonitrile before addition of the test compound. Stability was determined based on analysis of disappearance of the compounds as a function of incubation time. Quantification of test compounds was measured as a peak area relative to an internal standard. The elimination constant, k, is calculated by plotting mean disappearance values on a semi-logarithmic scale and fitting with a best fit linear regression. The half-life (t1/2) expressed in hours was derived using Equation 1:
t1/2=ln 2/(−k). Equation 1: […]

Series [2] in a line: Permeability in a porcine brain endothelial cell model of the blood-brain barrier. It is filed as in vitro ADME. The conditions noted are these: pig, luminal (apical) to basal, PBECs/As. From the text: Compounds disclosed herein show the potential to reach mammalian brain by crossing the blood-brain barrier (BBB) from systemic circulation. […] The porcine brain endothelial cell permeability assay is an in vitro BBB model to be used for the prediction of central nervous system (CNS) drug permeability in vivo and for ranking or prioritization of compounds according to their permeability. This system can also be used for mechanistic studies and drug delivery strategies via receptor-mediated transport (transcytosis). The system is a two-dimensional co-culture, non-contact model of two types of primary cells: primary brain endothelial cells obtained from fresh porcine brains, and primary rat astrocytes, obtained from neonatal rats (PBECs/As). This ensures barrier formation and functional expression of key transporters.
The endothelial cells were cultured on rat-tail collagen type I and human fibronectin coated Transwell polycarbonate inserts (surface area 0.7 cm^2; pore size 0.4 μm) and the inserts were placed in 24-well plates containing confluent rat astrocytes. This system allows for the formation of a differentiated BBB model suitable for compound permeability in 10 days.
On the day of the experiment, culture medium was removed and cells were pre-incubated for 30 min with HBSS containing 20 mM Hepes pH 7.4 and 0.1% BSA. Donor volume (apical) was 400 μl and receiver volume (basal) 900 μl. Compounds were diluted in assay medium (at the desired concentration) and added to the luminal side (to mimic blood to brain passage). Transport was measured usually after 60 min by detecting the amount of compound from the basal (brain side). The integrity of the cell layers was assessed by measuring the transendothelial electrical resistance (TEER) and by monitoring FITC-dextran (40 KDa) permeation. Inserts with TEER values>500 Ω/cm^2 were selected for permeability studies. […] Fluorescence was measured using a fluorimetric detector. Radioactivity was measured by scintillation counting. […] After reconstitution, samples were analyzed by LC-MS/MS. Mass balance was determined considering the amount of compound recovered in the donor and receiver chamber at the end of the assay relative to the amount added to the donor chamber at time 0.
Permeability was defined as the apparent permeability coefficient (Papp), which is a measure of the appearance rate of the compound in the receiver chamber, expressed in cm/s. Papp is calculated according the following equation: […]
To correct for the contribution of filter and substrate, Papp was also determined for the cell-free system. Permeability of the endothelial cell layer was determined using the following equation: […]

[3] abbreviates: Diastereoisomer A (upfield shift in 31P NMR), read-out: t1/2 (h) Human Hepatocytes Diastereoisomer A (converted).
[4] abbreviates: Diastereoisomer B, read-out: t1/2 (h) Human Hepatocytes Diastereoisomer B (converted).
Where [5] appears, read: pH 7.4, Diastereoisomer A (upfield shift in 31P NMR), read-out: Papp Diastereoisomer A.
Setting [6] is: pH 7.4, Diastereoisomer B, read-out: Papp Diastereoisomer B.

Regarding `CC(=O)SCCNC(=O)CCNC(=O)[C@@H]1OP(=O)(OCOC(=O)c2scnc2C)OCC1(C)C` (stereo partly drawn) [R1006, (((4R)-4-((3-((2-(acetylthio)ethyl)amino)-3-oxopropyl)carbamoyl)-5,5-dimethyl-2-oxido-1,3,2-dioxaphosphinan-2-yl)oxy)methyl 4-methylthiazole-5-carboxylate], the half-life at 5 μM in series [1] (setting [3]) was 0.42 h; in series [1] (setting [4]), 0.35 h. Moreover, the Papp A→B at 60 min in series [2] (setting [5]) came to 3.17 ×10⁻⁶ cm/s; in series [2] (setting [6]), 3.18 ×10⁻⁶ cm/s.

For the compound `CC(=O)SCCNC(=O)CCNC(=O)[C@@H]1OP(=O)(OCOC(=O)c2cc(C)nn2C)OCC1(C)C` (stereo partly drawn) [R1007, (((4R)-4-((3-((2-(acetylthio)ethyl)amino)-3-oxopropyl)carbamoyl)-5,5-dimethyl-2-oxido-1,3,2-dioxaphosphinan-2-yl)oxy)methyl 1,3-dimethyl-1H-pyrazole-5-carboxylate], the half-life at 5 μM is 0.25 h in series [1] (setting [3]) and 0.21 h in series [1] (setting [4]). In addition, the Papp A→B at 60 min stood at 3.1 ×10⁻⁶ cm/s in series [2] (setting [5]) and 3.6 ×10⁻⁶ cm/s in series [2] (setting [6]).
